Each structure is given as a SMILES string. Counter-ions that a name gives are not always drawn. Marks after values point to notes of the source that are not given here.

Holding throughout (format): in vivo
In one experiment the test system is Female CD1 mice. In words: Effect on energy expenditure of mice (oxygen consumption, oral dosing). Particulars: p.o. in water, percentage of the rate of energy expenditure of the mice dosed with water, dose differs per compound (Dose mg/kg p.o.); for Mean Energy Expenditure (0-3h): 0-3h after dosing; for Mean Energy Expenditure (0-21h): 0-21h after dosing. The method, then: Female CD1 mice each weighing approximately 24 g were given food and water ad lib before and during the experiment. The compounds were dissolved in water and these solutions were administered orally to each of 12 mice. A further 12 mice were dosed orally with water. The mice were placed in groups of threes in boxes through which air was drawn and the oxygen content of the air leaving the boxes was measured. The energy expenditure of the mice was calculated for 3 and 21 hours after dosing from the volume of air leaving the boxes and its oxygen content, following the principles described by J.B. de V. Weir, J. Physiol. (London) 109, 1-9 (1949). The results are expressed as a percentage of the rate of energy expenditure of the mice dosed with water.

In another experiment the test system is Male Sprague-Dawley rats. In words: Effect on energy expenditure of rats (oxygen consumption, oral dosing). Particulars: deprived of food, p.o. in water, percentage of the rate of energy expenditure of the rats dosed with water, dose differs per compound (Dose mg/kg p.o.); for Mean Energy Expenditure (0-3h): 0-3h after dosing; for Mean Energy Expenditure (0-21h): 0-21h after dosing. How it is done:
Male Sprague-Dawley rats each weighing between 170-200 g were deprived of food for 16 hours before, and during the experiment. Water was provided ad lib at all times. The compounds were administered orally in water to 3 or 4 rats. A further 4 rats were dosed orally with water. The rats were placed in boxes through which air was drawn and the oxygen content of the air leaving the boxes was measured. The energy expenditure of the rats was calculated for 3 hours and for 21 hours after dosing from the volume of air leaving the boxes and its oxygen content, following the principles described by J.B. de V. Weir, J. Physiol. (London) 109, 1-9 (1949). The results are expressed as a percentage of the rate of energy expenditure of the rats dosed with water.

A further experiment has as its system Female CFLP mice. The experiment in a line: Hypoglycaemic activity: subcutaneous glucose load, area under blood glucose curve. Particulars: female CFLP mice fasted 24 hours; compound orally 30 minutes before glucose 1 g/kg s.c.; 2 hour period; versus control mice given water; dose differs per compound (Dose µmol/kg). How it is done: Female CFLP mice, weighing approximately 25 g, were fasted for 24 hours prior to the study. The compounds under study were administered orally as an aqueous solution to each of 6 mice. 30 minutes later a blood sample (20 µl) was obtained from the tail for the analysis of blood glucose. Immediately after taking this blood sample, glucose (1 g/kg body weight) was administered subcutaneously to each mouse. 6 mice were given water as a control. Blood samples were then obtained from each mouse at 30 minute intervals for 120 minutes.
Compounds that produced a significant (p<0.05) reduction of blood glucose, compared with control mice given water, at any time interval, were considered active. The area under the blood glucose curve over the 2 hour period after the administration of the glucose was calculated for each compound and compared with the value for control animals.

For `COC(=O)c1ccc(C[C@@H](C)N(C[C@@H](O)COc2ccccc2)C[C@@H](O)COc2ccccc2)cc1` [Example 2, Methyl 4-[(R)-2-[bis-[(R)-2-hdroxy-3-penoxypropyl]amino]propyl]benzoate, fumarate], the results for the “Mean Energy Expenditure (0-3h)” value in the experiment with Female CD1 mice and in the experiment on Male Sprague-Dawley rats were 122 percentage and 114 percentage, respectively. Moreover, the “Mean Energy Expenditure (0-21h)” value in the experiment on Female CD1 mice amounted to 97 percentage; in the experiment on Male Sprague-Dawley rats it was 100 percentage.

On to `CNC(=O)c1ccc(C[C@@H](C)N(C[C@H](O)COc2ccccc2)C[C@H](O)COc2ccccc2)cc1` [Example 3, N-Methyl 4-[(R)-2-[bis-[(S)-2-hydrpxy-3-phenoxypropyl]amino]propyl]benzamide, fumarate], for which, in the experiment with Female CD1 mice, the “Mean Energy Expenditure (0-3h)” value was found to be 133 percentage and the “Mean Energy Expenditure (0-21h)” value was 109 percentage. Besides, in the experiment on Male Sprague-Dawley rats, the “Mean Energy Expenditure (0-3h)” value is listed as 114 percentage and the “Mean Energy Expenditure (0-21h)” value worked out at 100 percentage. The “% Reduction in Area under Blood Glucose Curve” value (shortened to “% Reduction in Area”) in the experiment on Female CFLP mice was 12%.

`COC(=O)c1ccc(C[C@@H](C)N(C[C@@H](O)COc2ccccc2)C[C@H](O)c2ccccc2)cc1` [Example 5, Methyl 4-[(R)-2-[N-[(R)-2-hydroxy-2-phenethyl]-N-[(R)-2-hydroxy-3-phenoxypropyl]amino]propyl]benzoate hydrochloride]: in the experiment with Female CD1 mice, the “Mean Energy Expenditure (0-3h)” value is on record as 136 percentage and the “Mean Energy Expenditure (0-21h)” value worked out at 112 percentage. Also, in the experiment on Female CFLP mice, the “% Reduction in Area” value is reported as 38%.

Take `CNC(=O)c1ccc(C[C@@H](C)N(C[C@H](O)COc2ccccc2)C[C@H](O)c2ccccc2)cc1` [Example 6, N-Methyl 4-[(R)-2-[N'-[(R)-2-hydroxy-2-phenethyl]-N'-[(S)-2-hydroxy-3-phenoxypropyl]amino]propyl]benzamide]: in the experiment on Female CD1 mice, the “Mean Energy Expenditure (0-3h)” value worked out at 126 percentage and the “Mean Energy Expenditure (0-21h)” value was 110 percentage. Besides, in the experiment with Male Sprague-Dawley rats, the “Mean Energy Expenditure (0-3h)” value was 112 percentage and the “Mean Energy Expenditure (0-21h)” value was determined as 108 percentage. Also, in the experiment on Female CFLP mice, the “% Reduction in Area” value is reported as 13%.

As to `CNC(=O)c1ccc(C[C@@H](C)N(C[C@@H](O)COc2ccccc2)C[C@H](O)c2ccccc2)cc1` [Example 7, N-Methyl 4-[(R)-2-[N'-[(R)-2-hydroxy-2-phenethyl]-N'-[(R)-2-hydroxy-3-phenoxypropyl]amino]propyl]benzamide], in the experiment with Female CD1 mice, the “Mean Energy Expenditure (0-3h)” value stood at 119 percentage and the “Mean Energy Expenditure (0-21h)” value was 102 percentage. Besides, in the experiment with Female CFLP mice, the “% Reduction in Area” value came to 18%.

For `COC(=O)c1ccc(C[C@@H](C)N(CC(O)c2cc(Cl)c(N)c(Cl)c2)C[C@H](O)COc2ccccc2)cc1` (stereo partly drawn) [Example 10, Methyl 4-[(R)-2-[N-[2-(4-amino-3,5-dichlorophenyl]-2-hydroxyethyl]-N-[(S)-2-hydroxy-3-phenoxypropyl]amino]propyl benzoate], in the experiment on Female CD1 mice, the “Mean Energy Expenditure (0-3h)” value is given as 121 percentage and the “Mean Energy Expenditure (0-21h)” value is 122 percentage. Further, in the experiment on Female CFLP mice, the “% Reduction in Area” value was determined as 31%.

Turning to `C[C@H](CCc1ccc(C(N)=O)cc1)N(C[C@H](O)COc1ccccc1)C[C@H](O)c1ccccc1` [Example 12, 4-[(R)-3-[N-(R)-2-Hydroxy-2-phenethyl-N-[(S)-2-hydroxy-3-phenoxypropyl]amino]butyl]benzamide], the “Mean Energy Expenditure (0-3h)” value in the experiment on Female CD1 mice is given as 111 percentage; with Male Sprague-Dawley rats, 139 percentage. The “Mean Energy Expenditure (0-21h)” value with Female CD1 mice is 103 percentage; in the experiment on Male Sprague-Dawley rats, 113 percentage. Also, the “% Reduction in Area” value in the experiment on Female CFLP mice is recorded as 28%.

As to `C[C@H](Cc1ccc(OCC(N)=O)cc1)N(C[C@H](O)COc1ccccc1)C[C@H](O)c1cccc(Cl)c1` [Example 19, 4-[(R)-2-[N-[(R)-2-(3-Chlorophenyl)-2-hydroxyethyl]-N-[(S)-2-hydroxy-3-phenoxypropyl]amino]propyl]phenoxyacetamide, hydrochloride, hemihydrate], in the experiment on Male Sprague-Dawley rats, the “Mean Energy Expenditure (0-3h)” value amounted to 120 percentage and the “Mean Energy Expenditure (0-21h)” value turned out to be 106 percentage. The “% Reduction in Area” value in the experiment with Female CFLP mice worked out at 43%.

As for `CCOC(=O)COc1ccc(CC[C@@H](C)N(C[C@H](O)COc2ccccc2)C[C@H](O)c2ccccc2)cc1` [Example 21, Ethyl 4-[(R)-3-[N-[(R)-2-hydroxy-2-phenethyl]-N-[(S)-2-hydroxy-3-phenoxypropyl]amino]butyl]phenoxyacetate, hydrochloride], in the experiment with Male Sprague-Dawley rats, the “Mean Energy Expenditure (0-3h)” value is listed as 110 percentage and the “Mean Energy Expenditure (0-21h)” value was 107 percentage.

Turning to `C[C@H](Cc1ccc(OCCO)cc1)N(C[C@H](O)COc1ccccc1)C[C@H](O)c1ccccc1` [Example 22, 4-[(R)-2-[N-[(R)-2-Hydroxy-2-phenethyl]-N-[(S)-2-hydroxy 3-phenoxypropyl]amino]propyl]phenoxyethanol, hydrochloride, hemihydrate], in the experiment on Male Sprague-Dawley rats, the “Mean Energy Expenditure (0-3h)” value is 120 percentage and the “Mean Energy Expenditure (0-21h)” value is 107 percentage.

Consider `COC(=O)COc1ccc(C[C@@H](C)N(C[C@H](O)COc2ccccc2)C[C@H](O)c2ccccc2)cc1` [Example 24, Methyl 4-[(R)-2-(N-[(R)-2-hydroxy-2-phenethyl]-N-[(S)-2-hydroxy-3-phenoxypropyl]amino]propyl]phenoxyacetate, hydrochloride, hemihydrate], for which, in the experiment on Male Sprague-Dawley rats, the “Mean Energy Expenditure (0-3h)” value stood at 146 percentage and the “Mean Energy Expenditure (0-21h)” value was found to be 122 percentage.

As for `C[C@H](COc1ccc(OCC(N)=O)cc1)N(C[C@H](O)COc1ccccc1)C[C@H](O)c1ccccc1` [Example 25, 4-[(R)-2-[N-[(R)-2-Hydroxy-2-phenethyl]-N-[(S)-2-hydroxy-3-phenoxypropyl]amino]propoxy]phenoxyacetamide, hydrochloride], in the experiment with Male Sprague-Dawley rats, the “Mean Energy Expenditure (0-3h)” value was found to be 126 percentage and the “Mean Energy Expenditure (0-21h)” value was found to be 115 percentage.

Turning to `CCOC(=O)COc1ccc(C[C@@H](C)N(CC(O)c2cc3ccccc3o2)C[C@H](O)COc2ccccc2)cc1.Cl` (stereo partly drawn) [Example 26, Ethyl 4-[(R)-2-[N-[2-(2-benzofuranyl)-2-hydroxyethyl]-N-[(S)-2-hydroxy-3-phenoxypropyl]amino]propyl]phenoxyacetate, hydrochloride], in the experiment on Male Sprague-Dawley rats, the “Mean Energy Expenditure (0-3h)” value came to 142 percentage and the “Mean Energy Expenditure (0-21h)” value came out at 117 percentage. In addition, in the experiment with Female CFLP mice, the “% Reduction in Area” value is given as 34%.

Consider `CCOC(=O)COc1ccc(C[C@@H](C)N(CC(O)c2cc3ccccc3o2)C[C@H](O)c2ccccc2)cc1` (stereo partly drawn) [Example 27, Ethyl 4-[(R)-2-[N-[(R)-2-hydroxy-2-phenethyl]-N-[2-(2-benzofuranyl)-2-hydroxyethyl]amino]propyl]phenoxyacetate hydrochloride], for which, in the experiment on Male Sprague-Dawley rats, the “Mean Energy Expenditure (0-3h)” value stood at 134 percentage and the “Mean Energy Expenditure (0-21h)” value is listed as 114 percentage.

Regarding `C[C@H](Cc1ccc(OCC(N)=O)cc1)N(C[C@@H](O)COc1ccccc1)C[C@H](O)c1ccc(O)cc1` [Example 28, 4-[(R)-2-[N-[(R)-2-Hydroxy-2-(4-hydroxyphenyl)ethyl]-N-[(R)-2-hydroxy-3-phenoxypropyl]amino]propyl]phenoxyacetamide], in the experiment on Male Sprague-Dawley rats, the “Mean Energy Expenditure (0-3h)” value stood at 131 percentage and the “Mean Energy Expenditure (0-21h)” value is 117* percentage.

In the case of `COC(=O)COc1ccc(CC(C)N(CC(O)COc2ccccc2)CC(O)c2cc(Cl)c(N)c(Cl)c2)cc1` (centres unmarked) [Example 29, Methyl 4-[2-[N-[2-(4-amino-3,5-dichlorophenyl)-2-bydroxy-ethyl]-N-[2-hydroxy-3-phenoxypropyl]amino]propyl]phenoxyacetate, hemifumarate], in the experiment with Male Sprague-Dawley rats, the “Mean Energy Expenditure (0-3h)” value stood at 131 percentage and the “Mean Energy Expenditure (0-21h)” value is listed as 122* percentage.

Take `CC(Cc1ccc(OCC(N)=O)cc1)N(CC(O)COc1ccccc1)CC(O)c1cc(Cl)c(N)c(Cl)c1` (centres unmarked) [Example 30, 4-[2-[N-[2-(4-Amino-3,5-dichlorophenyl)-2-hydroxyethyl]-N-[2-hydroxy-3-phenoxypropyl]amino]propyl]phenoxyacetamide]: in the experiment with Male Sprague-Dawley rats, the “Mean Energy Expenditure (0-3h)” value amounted to 129 percentage and the “Mean Energy Expenditure (0-21h)” value is listed as 116* percentage.

The values above are taken from patent EP0170121A1, “2-Hydroxy-3-aryloxypropyl or 2-hydroxy-2-benzofuranyl ethyl tertiary amine having an anti-hyperglycaemic and/or anti-obesity activity” (BEECHAM GROUP PLC, priority 1984, dated 1986).
